Data as given in patent US20190194148A1, “TETRAZOLE-CONTAINING 1,2-CYCLOPROPANE-CARBOXAMIDES” (Bayer Pharma Aktiengesellschaft, priority 2017, published 2019).
Where two headings read alike, the source gives them in different places.

Target: T1, human B1 receptor (Homo sapiens, UniProt P46663)
T1 construct: host or cells: CHO-K1
T1 sequence (P46663 1-353): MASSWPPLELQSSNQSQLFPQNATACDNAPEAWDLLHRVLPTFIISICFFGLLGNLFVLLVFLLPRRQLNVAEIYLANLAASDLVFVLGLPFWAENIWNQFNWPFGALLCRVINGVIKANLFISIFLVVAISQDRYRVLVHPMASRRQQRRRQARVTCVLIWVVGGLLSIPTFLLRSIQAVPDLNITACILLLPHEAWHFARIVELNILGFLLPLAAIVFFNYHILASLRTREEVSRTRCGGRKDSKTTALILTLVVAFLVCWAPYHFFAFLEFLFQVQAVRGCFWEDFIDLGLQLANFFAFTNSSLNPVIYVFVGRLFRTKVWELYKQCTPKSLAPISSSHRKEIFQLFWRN
Assay: Calcium flux assay (FLIPR) with recombinant CHO-K1 cells expressing human B1 receptor
Type: cell-based
Experimental: The potency to inhibit the Bradykinin B1 receptors was determined for the example compounds of this invention in a cell-based fluorescent calcium-mobilisation assay. The assay measures the ability of example compounds to inhibit Bradykinin B1 receptor agonist-induced increase of intracellular free Ca^2+ in the cell line expressing B1 receptor. Specifically, calcium indicator-loaded cells are pre-incubated in the absence or presence of different concentrations of example compounds followed by the stimulation with a selective B1 receptor agonist peptide. The change of the intracellular Ca^2+ concentration is monitored with a fluorescent plate reader FLIPR (Molecular Devices).
Calcium Flux Assays (FLIPR) with Cells Expressing Bradykinin B1 Receptor Calcium Flux Assay (FLIPR) with Recombinant Cells for Bradykinin B1 Receptor Antagonist, Either in the Presence (hB1 IC50) or Absence (hB1 free IC50) of 0.1% Bovine Serum Albumin (BSA) in Assay Buffer
CHO-K1 cell line expressing human B1 receptor was purchased from Euroscreen (Gosselies, Belgium, with reference name hB1-D1). The cells were grown in Nutrient Mixture Ham's F12 (Sigma) containing 10% Foetal bovine serum (Sigma) and 400 μg/mL G418 (Sigma), 5 μg/mL puromycin (Sigma).
For the calcium flux assay, 80% confluent cells were detached from the culture vessels with Versene (Gibco), and seeded into 384-well plates (Cell binding Surface; Corning, N.Y.; #3683) at a density of 15,000 cells per well. Cells were seeded in a volume of 50 μL in medium without antibiotics and incubated overnight in a humidified atmosphere with 5% CO2 at 37° C. […] The calcium indicator loaded cells were incubated at 37° C. for 2 hrs. Extracellular dye was then removed and each well was filled with 45 μL of assay buffer. Cell plates were kept in dark until used. Example compounds were assayed at 8 concentrations in triplicate. Serial 10-fold dilutions in 100% DMSO were made at a 100-times higher concentration than the final concentration, and then diluted 1:10 in assay buffer. 5 μL of each diluted compound was added to the well of cell plates (yielding final concentration with 1% DMSO), and incubated for 30 min at 28° C. before the addition of B1 receptor agonist on the FLIPR instrument.
Agonist plates contained the agonist Lys-(Des-Arg)-Bradykinin (Bachem, Brackley) at 3.5×EC90 in assay buffer with 1% DMSO. The addition of agonist 20 μl per well to the assay plate was carried out on the FLIPR instrument while continuously monitoring Ca^2+-dependent fluorescence at 538 nm. A peptide antagonist Lys-(Des-Arg-Leu)-Bradykinin (Bachem, Brackley) at 20 μM was used to determine the full inhibition as control.
Peak fluorescence was used to determine the response to agonist obtained at each concentration of example compound by the following equation:
% Response=100*(RFU(example compound)−RFU(control)/(RFU(DMSO)−RFU(control)
Control=full inhibition by the peptide antagonist Lys-(Des-Arg-Leu)-Bradykinin at 20 μM
The response values were plotted against the logarithm of the compound concentrations. The compounds were tested in triplicates per plate and mean values were plotted in Excel XLfit to determine IC50 values, percentage of maximal inhibition and the Hill slopes.

[1] = presence of 0.1% BSA in assay buffer, read-out: hB1 IC50
[2] = absence of 0.1% BSA in assay buffer, read-out: hB1 free IC50

Row | Structure (SMILES) | IC50 [1] | IC50 [2]
1 | CC(C)(C)c1cn(-c2ccc(NC(=O)C3CC3c3ccc(Cl)cc3)cc2-c2nnn[nH]2)cn1 (single isomer, unassigned) [Example 85, N-[4-(4-tert-butyl-1H-imidazol-1-yl)-3-(1H-tetrazol-5-yl)phenyl]-2-(4-chlorophenyl)cyclopropanecarboxamide] | – | 147 nM
2 | O=C(Nc1cc(-c2nnn[nH]2)c(-c2ccc(C(F)(F)F)nc2)cc1O)C1CC1c1ccc(Cl)cc1 (centres unmarked) [Example 83, 2-(4-chlorophenyl)-N-[2-hydroxy-5-(1H-tetrazol-5-yl)-4-[6-(trifluoromethyl)-3-pyridyl]phenyl]cyclo-propanecarboxamide] | 484 nM | 188 nM
3 | CC(C)(C)c1cn(-c2ccc(NC(=O)C3CC3c3ccc(Cl)cc3)cc2-c2nnn[nH]2)cn1 (single isomer, unassigned) [Example 84, N-[4-(4-tert-butyl-1H-imidazol-1-yl)-3-(1H-tetrazol-5-yl)phenyl]-2-(4-chlorophenyl)cyclopropanecarboxamide] | – | 4 nM
4 | O=C(Nc1ccc(-c2ccc(OC(F)(F)F)cc2)c(-c2nnn[nH]2)c1)C1CC1C1CCCCC1 (racemic) [Example 42, 2-cyclohexyl-N-[2-(1H-tetrazol-5-yl)-4′-(trifluoro-methoxy)biphenyl-4-yl]cyclopropanecarbox-amide] | 31 nM | –
5 | CC(C)(C)c1ccn(-c2ccc(NC(=O)C3CC3c3ccc(Cl)cc3)cc2-c2nnn[nH]2)n1 (racemic) [Example 45, N-[4-(3-tert-butyl-1H-pyrazol-1-yl)-3-(1H-tetrazol-5-yl)phenyl]-2-(4-chlorophenyl)cyclopro-panecarboxamide] | – | 463 nM
6 | COc1ccc(-c2ccc(NC(=O)C3CC3c3ccc(Cl)cc3)cc2-c2nnn[nH]2)cc1C (racemic) [Example 34, 2-(4-chlorophenyl)-N-[4′-methoxy-3′-methyl-2-(1H-tetrazol-5-yl)biphenyl-4-yl]cyclopropanecarbox-amide] | 232 nM | –
7 | O=C(Nc1ccc(-n2ccc(C(F)(F)F)n2)c(-c2nnn[nH]2)c1)C1CC1c1ccc(Cl)cc1 (racemic) [Example 47, 2-(4-Chlorophenyl)-N-{3-(1H-tetrazol-5-yl)-4-[3-(trifluoromethyl)-1H-pyrazol-1-yl]phenyl}cyclopropane-carboxamide] | – | 1220 nM
8 | Cn1cc(-c2ccc(NC(=O)C3CC3c3ccc(Cl)cc3)cc2-c2nnn[nH]2)cn1 (racemic) [Example 80, 2-(4-chlorophenyl)-N-[4-(1-methyl-1H-pyrazol-4-yl)-3-(1H-tetrazol-5-yl)phenyl]cyclopropane-carboxamide] | 12400 nM | 1310 nM
9 | COc1ccc(-c2cc(F)c(NC(=O)C3CC3c3cccc(C)c3)cc2-c2nnn[nH]2)cc1C (racemic) [Example 56, N-[5-Fluoro-4′-methoxy-3′-methyl-2-(1H-tetrazol-5-yl)biphenyl-4-yl]-2-(3-methylphenyl)cyclopro-panecarboxamide] | 19 nM | –
10 | CCOc1ccc(-c2ccc(NC(=O)C3CC3c3cccc(C)c3)cc2-c2nnn[nH]2)cc1OC (racemic) [Example 77, N-[4′-ethoxy-3′-methoxy-2-(1H-tetrazol-5-yl)biphenyl-4-yl]-2-(3-methylphenyl)cyclopro-panecarboxamide] | 12 nM | –

Results, then the compound that gave them:

Row | IC50 [1] | IC50 [2] | Structure (SMILES)
11 | 1230 nM | – | COc1ccc(-c2ccc(NC(=O)C3CC3c3ccc(Cl)cc3)cc2-c2nnn[nH]2)cc1Cl (racemic) [Example 39, N-[3′-chloro-4′-methoxy-2-(1H-tetrazol-5-yl)biphenyl-4-yl]-2-(4-chlorophenyl)cyclopro-panecarboxamide]
12 | 1050 nM | – | COc1ccc(C2CC2C(=O)Nc2ccc(-c3ccc(OC)c(OC)c3)c(-c3nnn[nH]3)c2)cc1 (racemic) [Example 13, N-[3′,4′-dimethoxy-2-(1H-tetrazol-5-yl)biphenyl-4-yl]-2-(4-methoxyphenyl)cyclo-propanecarboxamide]
13 | 372 nM | – | COc1cncc(-c2ccc(NC(=O)C3CC3c3ccc(Cl)cc3)cc2-c2nnn[nH]2)c1 (racemic) [Example 26, 2-(4-Chlorophenyl)-N-[4-(5-methoxypyridin-3-yl)-3-(1H-tetrazol-5-yl)phenyl]cyclopro-panecarboxamide]
14 | 336 nM | – | COc1cncc(-c2cc(C)c(NC(=O)C3CC3c3cccc(C)c3)cc2-c2nnn[nH]2)c1 (racemic) [Example 68, N-[4-(5-Methoxypyridin-3-yl)-2-methyl-5-(1H-tetrazol-5-yl)phenyl]-2-(3-methylphenyl)cyclo-propanecarboxamide]
15 | 1470 nM | – | COCc1ccc(-c2ccc(NC(=O)C3CC3c3ccc(Cl)cc3)cc2-c2nnn[nH]2)cc1 (racemic) [Example 38, 2-(4-chlorophenyl)-N-[4′-(methoxymethyl)-2-(1H-tetrazol-5-yl)biphenyl-4-yl]cyclopropanecarbox-amide]
16 | 20 nM | 6 nM | COc1ccc(-c2ccc(NC(=O)C3CC3c3ccccc3OC(F)(F)F)cc2-c2nnn[nH]2)cc1OC (racemic) [Example 6, N-[3′,4′-dimethoxy-2-(1H-tetrazol-5-yl)biphenyl-4-yl]-2-[2-(trifluoromethoxy)phen-yl]cyclopropane-carboxamide]
17 | 283 nM | – | COc1ccc(-c2cc(C)c(NC(=O)C3CC3c3ccc(Cl)cc3)cc2-c2nnn[nH]2)cc1OC (racemic) [Example 66, 2-(4-Chlorophenyl)-N-[3′,4′-dimethoxy-5-methyl-2-(1H-tetrazol-5-yl)biphenyl-4-yl]cyclopro-panecarboxamide]
18 | 24 nM | – | CCOc1ccc(-c2cc(C)c(NC(=O)C3CC3c3cccc(C)c3)cc2-c2nnn[nH]2)cn1 (racemic) [Example 63, N-[4-(6-Ethoxypyridin-3-yl)-2-methyl-5-(1H-tetrazol-5-yl)phenyl]-2-(3-methylphenyl)cyclo-propanecarboxamide]
19 | 469 nM | – | COc1ccc(-c2ccc(NC(=O)C3CC3C3CCCCC3)cc2-c2nnn[nH]2)cc1 (racemic) [Example 37, 2-cyclohexyl-N-[4′-methoxy-2-(1H-tetrazol-5-yl)biphenyl-4-yl]cyclopropanecarbox-amide]
20 | 22 nM | – | COCc1ccc(-c2ccc(NC(=O)C3CC3c3ccc(Cl)cc3)cc2-c2nnn[nH]2)cc1C (racemic) [Example 32, 2-(4-chlorophenyl)-N-[4′-(methoxymethyl)-3′-methyl-2-(1H-tetrazol-5-yl)biphenyl-4-yl]cyclopro-panecarboxamide]
21 | – | 26 nM | CC(C)(C)c1cnn(-c2ccc(NC(=O)C3CC3c3ccc(Cl)cc3)cc2-c2nnn[nH]2)c1 (racemic) [Example 44, N-[4-(4-tert-butyl-1H-pyrazol-1-yl)-3-(1H-tetrazol-5-yl)phenyl]-2-(4-chlorophenyl)cyclopro-panecarboxamide]
22 | 263 nM | 308 nM | Cc1cc(-c2ccc(C(F)(F)F)nc2)c(-c2nnn[nH]2)cc1NC(=O)C1CC1C1CCCCC1 (racemic) [Example 71, 2-Cyclohexyl-N-{2-methyl-5-(1H-tetrazol-5-yl)-4-[6-(trifluoromethyl)pyridin-3-yl]phenyl}cyclopro-panecarboxamide]
23 | 15 nM | – | CCOc1ccc(-c2ccc(NC(=O)C3CC3c3ccc(F)cc3)cc2-c2nnn[nH]2)cn1 (racemic) [Example 16, N-[4-(6-ethoxypyridin-3-yl)-3-(1H-tetrazol-5-yl)phenyl]-2-(4-fluorophenyl)cyclopro-panecarboxamide]
24 | 3300 nM | 514 nM | O=C(Nc1ccc(-c2ccc(C(F)(F)F)nc2)c(-c2nnn[nH]2)c1)C1CC1C1CCCCC1 (racemic) [Example 30, 2-Cyclohexyl-N-{3-(1H-tetrazol-5-yl)-4-[6-(trifluoromethyl)pyridin-3-yl]phenyl}cyclopro-panecarboxamide]
